What was measured:
H3K4me2 = test: Global histone methylation immunoblotting in MV4; type: cell-based, human; details: MV4;11 cells, 0.5 μM, 4 days
MLL-AF9 + AML PDX tumors = test: MLL-AF9+ AML PDX subcutaneous xenograft efficacy; type: in vivo, NSG-SGM3 mice; details: i.p. once a day, 5 days per week; MS40 100 mg/kg, MS169 34 mg/kg, MS40N2 100 mg/kg
[1] = Compound concentrations in plasma and tumor of PDX-bearing mice; type: in vivo, NSG-SGM3 mice; details: two hours post last dose; MS40 100 mg/kg, MS169 34 mg/kg, MS40N2 100 mg/kg
[2] = target: VHL–Elongin C–Elongin B ternary complex (VCB) (Homo sapiens, UniProt P40337); test: ITC, binding to VHL E3 ligase complex; details: compared to MS40
Chain of VHL–Elongin C–Elongin B ternary complex (VCB) (P40337 54-213 limits assumed): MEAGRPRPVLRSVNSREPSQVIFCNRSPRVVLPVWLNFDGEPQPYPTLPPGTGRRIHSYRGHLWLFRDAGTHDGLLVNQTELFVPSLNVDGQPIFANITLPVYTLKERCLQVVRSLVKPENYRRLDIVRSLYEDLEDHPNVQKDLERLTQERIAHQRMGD
Chain of VHL–Elongin C–Elongin B ternary complex (VCB) (Q15369 17-112 partner limits assumed): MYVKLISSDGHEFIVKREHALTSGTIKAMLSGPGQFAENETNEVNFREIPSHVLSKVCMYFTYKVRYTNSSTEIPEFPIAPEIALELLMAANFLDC
Chain of VHL–Elongin C–Elongin B ternary complex (VCB) (Q15370 1-104 partner limits assumed): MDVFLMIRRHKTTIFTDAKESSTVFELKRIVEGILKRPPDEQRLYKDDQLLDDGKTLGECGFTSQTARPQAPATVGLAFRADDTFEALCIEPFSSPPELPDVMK

WDR5 [3] = target: T1, WDR5 (Homo sapiens, UniProt P61964); test: Isothermal titration calorimetry; type: binding; details: for binding to WDR5 (ITC, in words): MS169 compared to MS40
IKZF1 and IKZF3 = test: IKZF1/IKZF3 degradation by immunoblotting in cells; type: cell-based, human; details: MV4;11, RS4;11 and other cell lines
LIMD1 = LIMD1 (Homo sapiens, UniProt Q9UGP4); test: LIMD1 degradation by immunoblotting in MV4; type: cell-based; details: MV4;11 and RS4;11 cells, 0.5 μM, 18 h
Chain of LIMD1 (Q9UGP4 whole entry): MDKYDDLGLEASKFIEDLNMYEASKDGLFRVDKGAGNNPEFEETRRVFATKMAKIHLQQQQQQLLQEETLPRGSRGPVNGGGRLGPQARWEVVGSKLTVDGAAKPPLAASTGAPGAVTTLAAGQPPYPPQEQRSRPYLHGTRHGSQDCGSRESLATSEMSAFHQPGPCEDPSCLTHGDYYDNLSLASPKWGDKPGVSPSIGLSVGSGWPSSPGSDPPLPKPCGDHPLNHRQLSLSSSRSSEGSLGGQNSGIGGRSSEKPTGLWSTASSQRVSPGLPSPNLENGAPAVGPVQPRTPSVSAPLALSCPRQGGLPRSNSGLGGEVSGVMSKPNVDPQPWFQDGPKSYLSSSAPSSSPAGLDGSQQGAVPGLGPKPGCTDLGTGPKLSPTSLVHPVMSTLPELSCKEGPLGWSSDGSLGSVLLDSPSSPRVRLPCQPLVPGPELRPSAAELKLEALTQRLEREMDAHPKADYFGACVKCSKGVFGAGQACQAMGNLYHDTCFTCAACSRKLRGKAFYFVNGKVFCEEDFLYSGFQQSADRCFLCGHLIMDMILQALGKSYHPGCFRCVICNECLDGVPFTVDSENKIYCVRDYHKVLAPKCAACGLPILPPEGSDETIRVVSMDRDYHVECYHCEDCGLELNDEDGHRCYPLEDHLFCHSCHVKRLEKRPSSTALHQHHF

[4] = tested on: BT549 and SUM149 breast cancer cells; test: Anti-proliferative effect in breast cancer cells; type: cell-based; details: MS40 relative to MS40N1 and OICR-9429
CRBN-TBD = details: read-out: KD, affinity to CRBN-TBD; cited from earlier work
[5] = target: CRBN's C-terminal thalidomide binding domain (CRBN-TBD) (Homo sapiens, UniProt Q96SW2); test: ITC, binding to CRBN thalidomide-binding domain
Chain of CRBN's C-terminal thalidomide binding domain (CRBN-TBD) (Q96SW2 318-426 limits assumed): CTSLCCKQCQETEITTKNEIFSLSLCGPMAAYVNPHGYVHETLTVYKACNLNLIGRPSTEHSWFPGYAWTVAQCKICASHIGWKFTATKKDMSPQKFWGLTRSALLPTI

MV4;11 cells = test: RNA-seq transcriptomic profiling in MV4; type: cell-based, human
WDR5 [6] = target: T1, WDR5; details: five lines of MLL-r AML and eight lines of breast cancer, 18 h

| Structure (SMILES) | global H3K4me2 level (H3K4me2) | PDX tumor growth compared to vehicle (MLL-AF9 + AML PDX tumors) | detected concentrations in plasma and tumor samples post-treatment [1] | binding to WDR5 (ITC, in words) (WDR5 [3]) | IKZF1/IKZF3 degradation (immunoblot) (IKZF1 and IKZF3) | other results |
| --- | --- | --- | --- | --- | --- | --- |
| CN1CCN(c2ccc(-c3cccc(CN4CCOCC4)c3)cc2NC(=O)c2c[nH]c(=O)cc2C(F)(F)F)CC1 [OICR-9429] | but not OICR-9429 or MS40N1 | – | – | – | – | – |
| Cc1ncsc1-c1ccc(CNC(=O)[C@@H]2C[C@@H](O)CN2C(=O)[C@@H](NC(=O)CCCCCCCCCC(=O)NCCN2CCN(Cc3cccc(-c4ccc(N5CCN(C)CC5)c(NC(=O)c5c[nH]c(=O)cc5C(F)(F)F)c4)c3)CC2)C(C)(C)C)cc1 [MS169] | – | no detected inhibitory effects on PDX tumor growth | higher than those of MS40 | comparable binding affinities to WDR5 and E3 ligase | without affecting IKZF1/3 | binding to E3 ligase (ITC, in words) [2]: comparable binding affinities to WDR5 and E3 ligase |
| Nc1cccc2c1C(=O)N(C1CCC(=O)NC1=O)C2=O (stereo not shown) [pomalidomide] | did not affect global H3K4me2 | – | – | – | led to degradation of IKZF1/3 | LIMD1 degradation (immunoblot) (LIMD1): but not LIMD1; anti-proliferative effect in BT549 and SUM149 [4]: unaffected; Kd (CRBN-TBD): 16 ± 4 µM |
| O=C(CCCCCCCNc1cccc2c1C(=O)N(C1CCC(=O)NC1=O)C2=O)NCCN1CCN(Cc2cccc(-c3ccc(N4CCOCC4)c(NC(=O)c4c[nH]c(=O)cc4C(F)(F)F)c3)c2)CC1 (stereo not shown) [MS40N2] | – | no detected inhibitory effects on PDX tumor growth | higher than those of MS40 | not bind WDR5 | induced degradation of IKZF1 and IKZF3 | binding to CRBN (ITC, in words) [5]: bind CRBN with a similar affinity as MS40 |
| CN1CCN(c2ccc(-c3cccc(CN4CCN(CCNC(=O)CCCCCCCNc5cccc6c5C(=O)N(C5CCC(=O)N(C)C5=O)C6=O)CC4)c3)cc2NC(=O)c2c[nH]c(=O)cc2C(F)(F)F)CC1 (stereo not shown) [MS40N1] | but not OICR-9429 or MS40N1 | – | – | – | – | gene-expression changes compared to DMSO (RNA-seq) (MV4;11 cells): did not result in significant gene-expression changes; KD, affinity to CRBN-TBD ([5]; 25 °C, mean ± SD): no binding was observed; fold lower binding affinity to WDR5 compared to OICR-9429 (WDR5 [3]; ITC): 4 fold; Kd (WDR5 [3]; read-out: KD, binding affinity to WDR5, ITC, 25 °C, mean ± SD of three experiments): 0.13 ± 0.001 µM; WDR5 degradation in panel of cell lines (WDR5 [6]): did not induce notable WDR5 reduction |

Reference: PMC9189076 (Oncogene, 2022)
